Measurements from the supplement of paper PMC11451515.

System: SEM cells
Assay: cell viability relative to DMSO control; higher = less cytotoxic
Details: 48 h
How it was run: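 NOMO1 or SEM cells were plated at 500 cells/well and P12-Ichikawa cells at 1000 cells/well in 1536-well plates (5 μl), after each leukemia line had been adapted for at least four passages in each medium. Pin dosing delivered library compounds in DMSO at 11 threefold concentrations, 47 μM to 0.79 nM. CellTiter-Glo One luminescence was read after 48 h at 37°C. Viability is reported as a per-plate percentage of DMSO wells, with cell-free wells as background.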

[1] = HPLM + 10% dialyzed FBS, 0.000781 µM
[2] = HPLM + 10% dialyzed FBS, 0.00234 µM
[3] = HPLM + 10% dialyzed FBS, 0.00702 µM
[4] = HPLM + 10% dialyzed FBS, 0.0211 µM
[5] = HPLM + 10% dialyzed FBS, 0.0632 µM
[6] = HPLM + 10% dialyzed FBS, 0.19 µM
[7] = HPLM + 10% dialyzed FBS, 0.569 µM
[8] = HPLM + 10% dialyzed FBS, 1.71 µM
[9] = HPLM + 10% dialyzed FBS, 5.12 µM
[10] = HPLM + 10% dialyzed FBS, 15.4 µM
[11] = HPLM + 10% dialyzed FBS, 46.1 µM
[12] = RPMI 5 mM glucose + 10% FBS, 0.000781 µM
[13] = RPMI 5 mM glucose + 10% FBS, 0.00234 µM
[14] = RPMI 5 mM glucose + 10% FBS, 0.00702 µM
[15] = RPMI 5 mM glucose + 10% FBS, 0.0211 µM
[16] = RPMI 5 mM glucose + 10% FBS, 0.0632 µM
[17] = RPMI 5 mM glucose + 10% FBS, 0.19 µM
[18] = RPMI 5 mM glucose + 10% FBS, 0.569 µM
[19] = RPMI 5 mM glucose + 10% FBS, 1.71 µM
[20] = RPMI 5 mM glucose + 10% FBS, 5.12 µM
[21] = RPMI 5 mM glucose + 10% FBS, 15.4 µM
[22] = RPMI 5 mM glucose + 10% FBS, 46.1 µM
[23] = RPMI 5 mM glucose + 10% dialyzed FBS, 0.000781 µM
[24] = RPMI 5 mM glucose + 10% dialyzed FBS, 0.00234 µM
[25] = RPMI 5 mM glucose + 10% dialyzed FBS, 0.00702 µM
[26] = RPMI 5 mM glucose + 10% dialyzed FBS, 0.0211 µM
[27] = RPMI 5 mM glucose + 10% dialyzed FBS, 0.0632 µM
[28] = RPMI 5 mM glucose + 10% dialyzed FBS, 0.19 µM
[29] = RPMI 5 mM glucose + 10% dialyzed FBS, 0.569 µM
[30] = RPMI 5 mM glucose + 10% dialyzed FBS, 1.71 µM
[31] = RPMI 5 mM glucose + 10% dialyzed FBS, 5.12 µM
[32] = RPMI 5 mM glucose + 10% dialyzed FBS, 15.4 µM
[33] = RPMI 5 mM glucose + 10% dialyzed FBS, 46.1 µM

SMILES	cell viability [1] [%]	cell viability [2] [%]	cell viability [3] [%]	cell viability [4] [%]	cell viability [5] [%]	cell viability [6] [%]	cell viability [7] [%]	cell viability [8] [%]	cell viability [9] [%]	cell viability [10] [%]	cell viability [11] [%]	cell viability [12] [%]	cell viability [13] [%]	cell viability [14] [%]	cell viability [15] [%]	cell viability [16] [%]	cell viability [17] [%]	cell viability [18] [%]	cell viability [19] [%]	cell viability [20] [%]	cell viability [21] [%]	cell viability [22] [%]	cell viability [23] [%]	cell viability [24] [%]	cell viability [25] [%]	cell viability [26] [%]	cell viability [27] [%]	cell viability [28] [%]	cell viability [29] [%]	cell viability [30] [%]	cell viability [31] [%]	cell viability [32] [%]	cell viability [33] [%]
COC(=O)N1CCN(Cc2cccc(NC(=O)Nc3ccc(C)nc3)c2F)CC1	96.1	95.2	105	108	99.2	105	86.7	100	100	102	73.7	122	120	120	116	119	124	124	114	116	108	96	90.3	107	109	106	94.7	112	94.6	90.1	90.7	86.4	65.3
NC(=O)N1c2ccccc2CC(=O)c2ccccc21												124	135	121	132	126	123	139	137	137	161	142	110	116	114	117	129	118	105	124	122	123	147
COc1ccc(CCN2CCN(CCCc3ccccc3)CC2)cc1OC	100	115	117	133	133	138	134	126	125	127	127	108	125	112	124	133	132	127	129	133	125	109	115	113	132	134	141	162	150	148	141	139	122
ClC1=CC=C(CCCOC/2=N/NC(=O)C(=C2NCC3=CN=CC=C3)/Br)C=C1	105	115	112	115	116	115	70.8	30.2	32.7	16	7.78	121	119	130	113	104	114	103	65.1	72.2	26.9	8.69	116	133	123	112	125	126	101	93.8	84.1	49.7	10
O=C1Nc2ccccc2/C1=C1\Nc2ccccc2C1=O	82.1	85.1	85.5	84.9	80.4	64.2	63.3	75	73.9	86.8	69.8	104	87.4	90.6	87.5	90.1	79.4	84	71.2	81.4	78.4	77.7	89.2	91.7	85.2	85.4	82.5	70.6	60.6	67	74.4	86	80.3
C#Cc1cccc(Nc2ncnc3cc(OCCOC)c(OCCO)cc23)c1	104	113	98.3	117	116	123	110	105	96.8	69.1	20												114	107	118	114	116	103	105	88.4	94.9	62.5	14.5
OC[C@H]1O[C@@H](Oc2ccc(O)cc2)[C@H](O)[C@@H](O)[C@@H]1O	68.3	82.3	75.3	93	90.1	95.1	95.7	19.1	93.1	77.7	76.3	71.7	90.8	73.7	96.3	90.3	95.4	102	17	82.3	103	77.2	86.2	81.8	92.2	87.8	72	101	105	22.1	97.9	88	81.2
O=C(O)[C@H](Cc1c[nH]c2ccccc12)N1C(=O)c2ccccc2C1=O	85.2	63.5	96.4	92.4	99.3	102	91.7	97.8	105	99.4	83.8	99.1	52.9	105	112	100	108	90.7	93.3	92	84.8	77.4	89.8	41.9	96.4	94.8	83.8	87.4	99.3	84.7	97.1	81.9	68
